This is an account of results in patent publication US11884631B1 (priority 2023, dated 2024).

In series [1] the test system is Mycobacterium tuberculosis H37Rv. The series can be described thus: Anti-tubercular activity (MIC), susceptible H37Rv strain. The series is classed as cell-based. The conditions noted are these: ATCC 25177 / H37Rv, MIC = minimum drug concentration inhibiting growth with no color change in the well, read-out: MIC (μg/mL) Susceptible (H37Rv).

In general, melting point refers to the temperature of the solid-liquid transition. The compound `Cc1ccc2c(ccc[n+]2CC(=O)c2cc(C(F)(F)F)cc(C(F)(F)F)c2)c1.[Br-]` [Compound 3c, 1-(2-(3,5-Bis(trifluoromethyl)phenyl)-2-oxoethyl)-6-methylquinolin-1-ium bromide] came in with a melting point of 246 to 247 °C. Moreover, the MIC in series [1] came to 16 µg/mL. Taken in the same sequence, the figures for `Cc1ccc2c(ccc[n+]2CC(=O)c2ccc(F)cc2)c1.[Br-]` [Compound 3b, 1-(2-(4-Fluorophenyl)-2-oxoethyl)-6-methylquinolin-1-ium bromide] were 206 to 207 °C and 8 µg/mL. For `Cc1ccc2c(ccc[n+]2CC(=O)c2ccc(Br)cc2)c1.[Br-]`, the melting point lay in the range of 221 to 222 °C.

Consider `Cc1ccc2c(ccc[n+]2CC(=O)c2ccccc2[N+](=O)[O-])c1.[Br-]` [Compound 3a, 6-Methyl-1-(2-(2-nitrophenyl)-2-oxoethyl)quinolin-1-ium bromide], for which the melting point was 218 to 219 °C. In series [1], the MIC turned out to be 32 µg/mL.
